The conditions of data set [1]: cited from earlier work.
A short description of data set [2]: Estimate of maximal amount of lymphatic absorbed TU. The conditions noted are these: 25% of solubility x 120 mg/g x 3.5 g triglyceride/10 h; formulation of 600 mg fat. From the text: The maximal amount of lymphatic absorbed TU can be estimated from the solubility of Testosterone Undecanoate in triglyceride and the transported triglyceride (Int. J. Pharm., vol. 34, 175-178, 1986).

With `CCCCCCCCCCC(=O)O[C@H]1CC[C@H]2[C@@H]3CCC4=CC(=O)CC[C@]4(C)[C@H]3CC[C@]12C` [Testosterone Undecanoate], the solubility in triglyceride in data set [1] was 120 mg/g. Also, the “maximal amount of lymphatic absorbed TU” value in data set [2] was approximately 100 mg.

Source of the values: patent publication US20140179655A1, “SOLID ORAL DOSAGE FORM OF TE[…]” (Solural Pharma ApS, priority 2012, published 2014).
